The values that follow come from BindingDB's records for patent US10188615 (ACUCELA INC., 2019).

Broadly, the IC50 is the concentration needed to halve the response being measured.

The assay deals with T1, Retinoid isomerohydrolase (Human, UniProt Q16518).
T1 sequence (Q16518 whole entry): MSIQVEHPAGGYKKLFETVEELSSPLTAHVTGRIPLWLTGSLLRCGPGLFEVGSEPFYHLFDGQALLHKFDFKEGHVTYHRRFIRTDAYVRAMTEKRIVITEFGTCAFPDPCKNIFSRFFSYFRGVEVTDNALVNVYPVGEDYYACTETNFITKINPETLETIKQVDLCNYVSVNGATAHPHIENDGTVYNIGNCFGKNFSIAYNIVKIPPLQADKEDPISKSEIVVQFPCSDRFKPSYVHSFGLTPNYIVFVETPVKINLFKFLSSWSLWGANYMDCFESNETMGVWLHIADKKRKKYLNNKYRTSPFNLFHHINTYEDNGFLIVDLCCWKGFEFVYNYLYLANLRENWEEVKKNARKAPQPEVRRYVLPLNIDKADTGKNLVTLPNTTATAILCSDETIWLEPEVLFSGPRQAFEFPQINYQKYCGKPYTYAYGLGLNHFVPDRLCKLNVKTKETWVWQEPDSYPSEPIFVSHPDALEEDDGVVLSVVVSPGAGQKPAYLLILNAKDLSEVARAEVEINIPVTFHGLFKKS
Put plainly: In Vitro Isomerase Inhibition Assay.
In the case of `NCCCc1cccc(OC[C@H]2CCCC[C@H]2O)c1` (relative stereo) [US10188615, Example 147], the concentration for half-maximal inhibition (IC50) entry was “in the range around 55 nM”.
For `NCCCc1cccc(OC[C@@H]2CCCC[C@H]2O)c1` (relative stereo) [US10188615, Example 148], the IC50 result was “in the range around 55 nM”.
Under `NCCOc1cccc(OCc2ccccc2)c1` [US10188615, Example 8] stands “in the range around 550 nM”; under `NCCOc1cccc(OCC2(O)CCCCCC2)c1` [US10188615, Example 18], “in the range around 550 nM”; under `CCCC(CCC)COc1cccc(OCCN)c1` [US10188615, Example 25], “in the range around 55 nM”.
Regarding `NCCOc1cccc(OCC2(O)CCCCC2)c1` [US10188615, Example 26], the IC50 entry is “in the range around 550 nM”.
For the compound `CCC(O)(CC)COc1cccc(OCCN)c1` [US10188615, Example 31], the IC50 entry is “in the range around 550 nM”.
With `CCC(O)(CC)COc1cccc(CCCN)c1` [US10188615, Example 32] the entry was “in the range around 55 nM”.
In the case of `CC(C)CCOc1cccc(CCCN)c1` [US10188615, Example 33], the IC50 result was “in the range around 550 nM”.
As to `CCC(CC)COc1cccc(OCCN)c1` [US10188615, Example 36], the IC50 entry is “in the range around 55 nM”.
With `NCCC(O)c1cccc(OCc2ccccc2)c1` (stereo not drawn) [US10188615, Example 37], the IC50 entry is “in the range around 55 nM”.
For `COc1ccccc1COc1cccc(CCCN)c1` [US10188615, Example 38], the IC50 result was “in the range around 550 nM”.
In the case of `COCCOc1cccc(CCCN)c1` [US10188615, Example 40], the IC50 result was “in the range around 5500 nM”.
As to `COCCCCOc1cccc(CCCN)c1` [US10188615, Example 41], the IC50 entry is “in the range around 550 nM”.
In the case of `NCCCc1cccc(OCCCCOCc2ccccc2)c1` [US10188615, Example 42], the concentration for half-maximal inhibition (IC50) entry is “in the range around 5500 nM”.
Regarding `CCCCCOc1cccc(CCCN)c1` [US10188615, Example 44], the IC50 entry is “in the range around 550 nM”.
Regarding `CC(C)CCOc1cccc(OCCN)c1` [US10188615, Example 46], the IC50 entry was “in the range around 55 nM”.
As for `NCCOc1cccc(OCCc2ccccc2)c1` [US10188615, Example 47], the IC50 entry is “in the range around 55 nM”.
As for `CC[C@H](CN)[C@@H](O)c1cccc(OCC2CCCCC2)c1` [US10188615, Example 49], the IC50 entry is “in the range around 55 nM”.
Consider `CCC(CC)COc1cccc(O[C@H](C)CN)c1` [US10188615, Example 50], for which the IC50 result was “in the range around 550 nM”.
For `CCCC(CCC)COc1cccc(O[C@H](C)CN)c1` [US10188615, Example 51], the IC50 entry was “in the range around 550 nM”.
For the compound `C[C@H](CN)Oc1cccc(OCC2CCCC2)c1` [US10188615, Example 52], the IC50 entry is “in the range around 550 nM”.
Turning to `C[C@H](CN)Oc1cccc(OCC2CCCCC2)c1` [US10188615, Example 53], the half-maximal inhibitory concentration (IC50) result is “in the range around 550 nM”.
On to `NCCC(O)c1cccc(OCCc2ccccc2)c1` (stereo not drawn) [US10188615, Example 54], for which the IC50 entry is “in the range around 55 nM”.
In the case of `NCCOc1cccc(OCC2CC2)c1` [US10188615, Example 57], the 50% inhibitory concentration (IC50) result is “in the range around 550 nM”.
On to `NCCOc1cccc(OCC2CCC2)c1` [US10188615, Example 58], for which the IC50 entry was “in the range around 550 nM”.
Take `NCCCc1cccc(OCc2ccccc2)c1` [US10188615, Example 59]: the IC50 result is “in the range around 550 nM”.
`NCCCc1cccc(OCC2CC2)c1` [US10188615, Example 60]: the IC50 result was “in the range around 550 nM”.
In the case of `NCCCc1cccc(OCC2CCC2)c1` [US10188615, Example 61], the IC50 result was “in the range around 550 nM”.
With `CCC(CC)COc1cccc(O[C@@H](C)CN)c1` [US10188615, Example 62], the IC50 result was “in the range around 550 nM”.
For the compound `CCCC(CCC)COc1cccc(O[C@@H](C)CN)c1` [US10188615, Example 63], the IC50 result is “in the range around 550 nM”.
For `C[C@@H](CN)Oc1cccc(OCC2CCCC2)c1` [US10188615, Example 64], the IC50 entry is “in the range around 550 nM”.
With `C[C@@H](CN)Oc1cccc(OCC2CCCCC2)c1` [US10188615, Example 65], the IC50 result was “in the range around 550 nM”.
Regarding `CCC(CC)COc1cccc(C[C@H](O)CN)c1` [US10188615, Example 66], the IC50 entry was “in the range around 55 nM”.
Consider `CCCC(CCC)COc1cccc(C[C@H](O)CN)c1` [US10188615, Example 67], for which the IC50 entry was “in the range around 55 nM”.
In the case of `CCCC(CCC)COc1cccc(C[C@@H](O)CN)c1` [US10188615, Example 68], the 50% inhibitory concentration (IC50) entry is “in the range around 55 nM”.
Turning to `CCC(CC)COc1cccc(C[C@@H](O)CN)c1` [US10188615, Example 69], the IC50 entry was “in the range around 55 nM”.
Under `NCCCc1cccc(OCCc2ccccc2)c1` [US10188615, Example 70] stands “in the range around 550 nM”; under `NCCC(O)c1cccc(OCC2CC2)c1` (stereo not drawn) [US10188615, Example 71], “in the range around 55 nM”; under `C[C@@H](CN)[C@H](O)c1cccc(OCC2CCCCC2)c1` [US10188615, Example 73], “in the range around 55 nM”.
For the compound `C[C@@H](CN)[C@@H](O)c1cccc(OCC2CCCCC2)c1` [US10188615, Example 75], the IC50 entry was “in the range around 55 nM”.
With `C[C@H](CN)[C@H](O)c1cccc(OCC2CCCCC2)c1` [US10188615, Example 76] the entry was “in the range around 5500 nM”; with `COCCOCCOCC(=O)NCCC(O)c1cccc(OCC2CCCCC2)c1` (stereo not drawn) [US10188615, Example 77], “in the range around 5500 nM”.
In the case of `C=C(CCN)c1cccc(OCC2CCCCC2)c1` [US10188615, Example 78], the IC50 result was “in the range around 550 nM”.
Under `NCCC(O)(CO)c1cccc(OCC2CCCCC2)c1` (stereo not drawn) [US10188615, Example 79] stands “in the range around 5500 nM”; under `NCCC(CO)c1cccc(OCC2CCCCC2)c1` (stereo not drawn) [US10188615, Example 80], “in the range around 550 nM”; under `CC(CCN)c1cccc(OCC2CCCCC2)c1` (stereo not drawn) [US10188615, Example 81], “in the range around 55 nM”.
Under `COCCCCOc1cccc(OCCN)c1` [US10188615, Example 82] stands “in the range around 550 nM”.
Consider `NCCC(O)c1cccc(OCC2CCCCO2)c1` (stereo not drawn) [US10188615, Example 83], for which the half-inhibitory concentration (IC50) entry is “in the range around 55 nM”.
Take `NCCOc1cccc(OCc2c(Cl)cccc2Cl)c1` [US10188615, Example 84]: the IC50 result is “in the range around 550 nM”.
As to `COCCCOc1cccc(OCCN)c1` [US10188615, Example 85], the IC50 result is “in the range around 550 nM”.
As to `COCCOc1cccc(C(O)CCN)c1` (stereo not drawn) [US10188615, Example 86], the IC50 entry was “in the range around 550 nM”.
For the compound `NCCOc1cccc(OCCCc2ccccc2)c1` [US10188615, Example 89], the IC50 result was “in the range around 550 nM”.
